Data as given in ChEMBL document CHEMBL1201862, “PubChem BioAssay data set” (2004).
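A five-concentration, 48-hour dose response in 96-well plates underlies each endpoint, interpolated linearly between surrounding concentrations. GI50 = concentration required for 50% inhibition of growth.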 The source made the active and inactive calls. Rule as the data show it: active = GI50 up to about 1.1 µM and inactive = higher.

Experiments:
Experiment in all cases: DTP human tumour cell line panel, 48 h
A498 = test system: A498
A549 = test system: A549
SK-OV-3 = test system: SK-OV-3
U-251 = test system: U-251
CAKI-1 = test system: CAKI-1
DMS-114 = test system: DMS-114
HT-29 = test system: HT-29
SK-MEL-28 = test system: SK-MEL-28
SNB-19 = test system: SNB-19
NCI-H460 = test system: NCI-H460
NCI-H23 = test system: NCI-H23
HCT-116 = test system: HCT-116
HCT-15 = test system: HCT-15
UACC-257 = test system: UACC-257
SN12C = test system: SN12C
TK-10 = test system: TK-10
SR = test system: SR
MCF7 = test system: MCF7
Hs-578T = test system: Hs-578T
MDA-MB-231 = test system: MDA-MB-231

SMILES	GI50 (A498)	GI50 (A549)	GI50 (SK-OV-3)	GI50 (U-251)	GI50 (CAKI-1)	GI50 (DMS-114)	GI50 (HT-29)	GI50 (SK-MEL-28)	GI50 (SNB-19)	GI50 (NCI-H460)	GI50 (NCI-H23)	GI50 (HCT-116)	GI50 (HCT-15) [µM]	GI50 (UACC-257)	GI50 (SN12C)	GI50 (TK-10)	GI50 (SR)	GI50 (MCF7)	GI50 (Hs-578T)	GI50 (MDA-MB-231)
CC(=O)NC(CCCCNC(=O)OCc1ccccc1)C(=O)NCc1ccccc1 (stereo not drawn)	> 100 µM (inactive)	> 100 µM (inactive)	> 100 µM (inactive)	> 100 µM (inactive)	> 100 µM (inactive)	> 100 µM (inactive)	> 100 µM (inactive)	> 100 µM (inactive)	> 100 µM (inactive)	> 100 µM (inactive)	> 100 µM (inactive)	> 100 µM (inactive)	> 100	> 100 µM (inactive)	> 100 µM (inactive)	> 100 µM (inactive)	–	–	–	–
CS/C(=N/C(=O)c1ccccc1)SCCS/C(=N\C(=O)c1ccccc1)SC	> 100 µM (inactive)	> 100 µM (inactive)	–	> 100 µM (inactive)	> 100 µM (inactive)	90.4 µM (inactive)	> 100 µM (inactive)	> 100 µM (inactive)	> 100 µM (inactive)	> 100 µM (inactive)	> 100 µM (inactive)	> 100 µM (inactive)	> 100	> 100 µM (inactive)	> 100 µM (inactive)	> 100 µM (inactive)	–	–	–	–
Cc1sc2ncnc(NCCc3ccccc3)c2c1C	11.1 µM (inactive)	14.7 µM (inactive)	22.6 µM (inactive)	11.6 µM (inactive)	7.53 µM (inactive)	–	14.6 µM (inactive)	17.8 µM (inactive)	23.7 µM (inactive)	8.99 µM (inactive)	10.9 µM (inactive)	6.04 µM (inactive)	21.5	1.04 µM (active)	10.6 µM (inactive)	11.4 µM (inactive)	0.579 µM (active)	12.5 µM (inactive)	20.7 µM (inactive)	14.6 µM (inactive)
Cc1ccc(Sc2cc([N+](=O)[O-])cc(Sc3ccc(C)cc3)c2Sc2ccc(C)cc2)cc1	> 100 µM (inactive)	> 100 µM (inactive)	–	46.5 µM (inactive)	> 100 µM (inactive)	> 100 µM (inactive)	> 100 µM (inactive)	–	66.8 µM (inactive)	> 100 µM (inactive)	–	> 100 µM (inactive)	> 100	> 100 µM (inactive)	> 100 µM (inactive)	> 100 µM (inactive)	–	–	–	–
CC(=O)Nn1cnc(C(=N)C#N)c1N	> 100 µM (inactive)	> 100 µM (inactive)	> 100 µM (inactive)	> 100 µM (inactive)	> 100 µM (inactive)	–	> 100 µM (inactive)	> 100 µM (inactive)	> 100 µM (inactive)	> 100 µM (inactive)	> 100 µM (inactive)	> 100 µM (inactive)	> 100	> 100 µM (inactive)	> 100 µM (inactive)	> 100 µM (inactive)	> 100 µM (inactive)	> 100 µM (inactive)	> 100 µM (inactive)	> 100 µM (inactive)
CC(=O)O[C@H]1CCC2[C@@H]3CCC4C(=O)c5oncc5C[C@]4(C)C3CC[C@@]21C (stereo partly drawn)	21.7 µM (inactive)	> 100 µM (inactive)	> 100 µM (inactive)	> 100 µM (inactive)	–	> 100 µM (inactive)	> 100 µM (inactive)	> 100 µM (inactive)	> 10 µM (inactive)	> 100 µM (inactive)	> 100 µM (inactive)	> 10 µM (inactive)	> 100	> 100 µM (inactive)	> 100 µM (inactive)	> 100 µM (inactive)	–	–	–	–
C=C1CN(C(=O)c2cc3cc(OC)c(OC)c(OC)c3[nH]2)c2cc([N+](=O)[O-])ccc21	64.4 µM (inactive)	> 100 µM (inactive)	33.2 µM (inactive)	19.1 µM (inactive)	> 100 µM (inactive)	–	> 100 µM (inactive)	> 100 µM (inactive)	45.8 µM (inactive)	> 100 µM (inactive)	65 µM (inactive)	> 100 µM (inactive)	> 100	> 100 µM (inactive)	> 100 µM (inactive)	26.5 µM (inactive)	> 100 µM (inactive)	> 100 µM (inactive)	4.47 µM (inactive)	17.5 µM (inactive)
CCO/N=C(/CC)c1ccc(Br)s1	> 100 µM (inactive)	> 100 µM (inactive)	> 100 µM (inactive)	> 100 µM (inactive)	> 100 µM (inactive)	–	> 100 µM (inactive)	> 100 µM (inactive)	> 100 µM (inactive)	> 100 µM (inactive)	> 100 µM (inactive)	> 100 µM (inactive)	> 100	> 100 µM (inactive)	> 100 µM (inactive)	> 100 µM (inactive)	52.2 µM (inactive)	> 100 µM (inactive)	> 100 µM (inactive)	> 100 µM (inactive)
O=C(CC(Cl)(Cl)C(Cl)(Cl)Cl)c1ccccc1	18.4 µM (inactive)	17.8 µM (inactive)	18.4 µM (inactive)	4.7 µM (inactive)	2.3 µM (inactive)	–	2.06 µM (inactive)	2.2 µM (inactive)	17.4 µM (inactive)	12 µM (inactive)	3.88 µM (inactive)	2.1 µM (inactive)	2.17	1.78 µM (inactive)	0.59 µM (active)	6.1 µM (inactive)	2.04 µM (inactive)	3.65 µM (inactive)	3.76 µM (inactive)	2.11 µM (inactive)
CC(C)(C)c1cc(/C=C(\C#N)C(=O)NCCO)cc(C(C)(C)C)c1O	20.3 µM (inactive)	27.4 µM (inactive)	20.7 µM (inactive)	18 µM (inactive)	24.5 µM (inactive)	–	21 µM (inactive)	21.6 µM (inactive)	32.1 µM (inactive)	20.7 µM (inactive)	27.9 µM (inactive)	16.9 µM (inactive)	20.7	17.5 µM (inactive)	19 µM (inactive)	22.3 µM (inactive)	17.5 µM (inactive)	26.5 µM (inactive)	37.8 µM (inactive)	18.4 µM (inactive)
C=CCNC(=O)ON1C(=O)CCC1=O	> 100 µM (inactive)	> 100 µM (inactive)	> 100 µM (inactive)	> 100 µM (inactive)	–	> 100 µM (inactive)	> 100 µM (inactive)	> 100 µM (inactive)	> 100 µM (inactive)	> 100 µM (inactive)	> 100 µM (inactive)	> 100 µM (inactive)	> 100	> 100 µM (inactive)	> 100 µM (inactive)	> 100 µM (inactive)	–	–	–	–
Oc1c(Cl)ccc2cccnc12	4.81 µM (inactive)	3.96 µM (inactive)	4.71 µM (inactive)	3.69 µM (inactive)	3.25 µM (inactive)	–	18.4 µM (inactive)	22.8 µM (inactive)	13.3 µM (inactive)	3.4 µM (inactive)	5.06 µM (inactive)	1.79 µM (inactive)	0.927	6.03 µM (inactive)	4.58 µM (inactive)	4.36 µM (inactive)	1.88 µM (inactive)	1.02 µM (active)	4.32 µM (inactive)	3.76 µM (inactive)
O=C(CNC(c1ccccc1)(c1ccccc1)c1ccccc1)NC1CCCCC1NC(=O)CNC(c1ccccc1)(c1ccccc1)c1ccccc1 (stereo not drawn)	> 100 µM (inactive)	> 100 µM (inactive)	> 100 µM (inactive)	43 µM (inactive)	> 100 µM (inactive)	–	> 100 µM (inactive)	> 100 µM (inactive)	> 100 µM (inactive)	> 100 µM (inactive)	> 100 µM (inactive)	> 100 µM (inactive)	> 100	> 100 µM (inactive)	> 100 µM (inactive)	> 100 µM (inactive)	> 100 µM (inactive)	> 100 µM (inactive)	32.9 µM (inactive)	> 100 µM (inactive)
CC(CC(=O)O)C(C(=O)O)C(=O)O (stereo not drawn)	> 100 µM (inactive)	> 100 µM (inactive)	> 100 µM (inactive)	> 100 µM (inactive)	> 100 µM (inactive)	–	> 100 µM (inactive)	> 100 µM (inactive)	> 100 µM (inactive)	> 100 µM (inactive)	> 100 µM (inactive)	> 100 µM (inactive)	> 100	> 100 µM (inactive)	> 100 µM (inactive)	> 100 µM (inactive)	> 100 µM (inactive)	> 100 µM (inactive)	> 100 µM (inactive)	> 100 µM (inactive)
Cc1cc(NC[C@H](O)[C@H](O)[C@H](O)CO)c(Sc2cc(=O)[nH]c(=O)[nH]2)cc1C	> 62.5 µM (inactive)	> 62.5 µM (inactive)	> 62.5 µM (inactive)	> 62.5 µM (inactive)	> 62.5 µM (inactive)	–	> 62.5 µM (inactive)	> 62.5 µM (inactive)	> 62.5 µM (inactive)	> 62.5 µM (inactive)	> 62.5 µM (inactive)	> 62.5 µM (inactive)	> 62.5	> 62.5 µM (inactive)	> 62.5 µM (inactive)	> 62.5 µM (inactive)	> 62.5 µM (inactive)	> 62.5 µM (inactive)	> 62.5 µM (inactive)	> 62.5 µM (inactive)
CSc1[nH]nc(N)c1C(=O)Nc1ccc(Cl)cc1	73.3 µM (inactive)	48.4 µM (inactive)	> 100 µM (inactive)	92.3 µM (inactive)	46.2 µM (inactive)	–	41.5 µM (inactive)	> 100 µM (inactive)	66.5 µM (inactive)	79.4 µM (inactive)	36.6 µM (inactive)	23.6 µM (inactive)	46.2	> 100 µM (inactive)	> 100 µM (inactive)	47.2 µM (inactive)	35.3 µM (inactive)	84.7 µM (inactive)	> 100 µM (inactive)	> 100 µM (inactive)
